Test results as given in patent US9937234B2, “Compositions and methods for using and identifying antimicrobial agents” (priority 2013, dated 2018).
“Also recorded” adds a separate entry of the source.

Experiments:
[1] = system: B. anthracis Sterne strain bacilli; assay type: cell-based, Bacillus anthracis
[2] = system: B. anthracis Sterne strain spores; assay type: cell-based, Bacillus anthracis
[3] = system: E. coli parent strain (BW25113); experiment: Antimicrobial assay against E. coli parent strain (cfu/mL); assay type: cell-based, Escherichia coli
[4] = system: E. coli transposon mutants Tnx 6 and Tnx 15; experiment: Secondary screen of E. coli transposon mutants (cfu/mL); assay type: cell-based, Escherichia coli; conditions: 6 μg/mL for 2 h
E. coli ΔaceE = experiment: Antimicrobial assay against E. coli ΔaceE (cfu/mL); assay type: cell-based, Escherichia coli; conditions: 2 h
[5] = system: E. coli ΔaceE, ΔaceF and ΔlpdA; experiment: Antimicrobial assay against E. coli PDHc subunit deletion mutants (cfu/mL); assay type: cell-based, Escherichia coli; conditions: concentrations as high as 48 μg/mL; 2 h

CCL2 [reference compound]
antimicrobial activity against the vegetative form (bacilli) [1]: no antimicrobial activity | effect on spore form / spore germination [2]: no antimicrobial activity

CCL5 [reference compound]
antimicrobial activity against the vegetative form (bacilli) [1]: no antimicrobial activity | effect on spore form / spore germination [2]: no antimicrobial activity

human CXCL9
antimicrobial activity against the vegetative form (bacilli) [1]: directly kill vegetative cells; also recorded: antimicrobial activity against the vegetative form | hierarchy of activity in ability to kill bacilli and block spore germination [1]: CXCL10>CXCL9>CXCL11 | hierarchy of direct antimicrobial activity [1]: hCXCL10>hCXCL9>hCXCL11 | effect on spore form / spore germination [2]: direct inhibitory effects on spore germination; also recorded: spore germination was blocked or reduced

human CXCL10
EC50 value [1]: 4 to 6 mg/L | EC50 value, killing effect [1]: 0.33 mg/L | antimicrobial activity against the vegetative form (bacilli) [1]: directly kill vegetative cells; also recorded: antimicrobial activity against the vegetative form | hierarchy of activity in ability to kill bacilli and block spore germination [1]: CXCL10>CXCL9>CXCL11 | hierarchy of direct antimicrobial activity [1]: hCXCL10>hCXCL9>hCXCL11 | more potent killing effect, stationary vs exponential phase [1]: > 10 fold | effect on spore form / spore germination [2]: direct inhibitory effects on spore germination; also recorded: spore germination was blocked or reduced | effect on parent strain ([3]; 6 μg/mL): not entirely killed | effect on parent strain ([3]; 10 μg/mL for 2 hours): killed | effect on parent strain ([3]; 36 μg/mL (4.2 μM) and 48 μg/mL (5.6 μM)): killed | susceptibility of parent strain complemented with empty vector or aceE vector ([3]; pBR322 or pUVA411, increasing concentrations, 2 h): remained similarly susceptible | susceptibility of Tnx 6 and Tnx 15 in relation to the parent strain [4]: significantly decreased susceptibility | susceptibility of ΔaceE (E. coli ΔaceE; increasing concentrations, compared to parent strain): significantly less susceptible; also recorded: exhibits resistance; also recorded: resistant | susceptibility of ΔaceE complemented with aceE (E. coli ΔaceE; plasmid pUVA411 (aceE)): restored susceptibility; also recorded: restores the parent strain susceptibility phenotype | susceptibility of ΔaceE, ΔaceF and ΔlpdA deletion mutants [5]: equally resistant

B1: murine CXCL9 (protein, listed as Mus musculus)
chain: KSAVLFLLGIIFLEQCGVRGTLVIRNARCSCISTSRGTIHYKSLKDLKQFAPSPNCNKTEIIATLKNGDQTCLDPDSANVKKLMKEWE
hierarchy of activity in ability to kill bacilli and block spore germination [1]: CXCL9>CXCL10>CXCL11 | hierarchy of direct antimicrobial activity [1]: mCXCL9>mCXCL10>mCXCL11

B2: human CXCL11 (protein, listed as Homo sapiens)
chain: QGFPMFKRGRCLCIGPGVKAVKVADIEKASIMYPSNNCDKIEVIITLKENKGQRCLNPKSKQARLIIKKVERKNF
antimicrobial activity against the vegetative form (bacilli) [1]: directly kill vegetative cells; also recorded: antimicrobial activity against the vegetative form | hierarchy of activity in ability to kill bacilli and block spore germination [1]: CXCL10>CXCL9>CXCL11 | hierarchy of direct antimicrobial activity [1]: hCXCL10>hCXCL9>hCXCL11 | effect on spore form / spore germination [2]: direct inhibitory effects on spore germination; also recorded: spore germination was blocked or reduced

B3: murine CXCL11 (protein, listed as Mus musculus)
chain: QGFLMFKQGRCLCIGPGMKAVKMAEIEKASVIYPSNGCDKVEVIVTMKAHKRQRCLDPRSKQARLIMQAIEKKNF
hierarchy of activity in ability to kill bacilli and block spore germination [1]: CXCL9>CXCL10>CXCL11 | hierarchy of direct antimicrobial activity [1]: mCXCL9>mCXCL10>mCXCL11

B4: murine CXCL10 (protein, listed as Mus musculus)
chain: MNPSAAVIFCLILLGLSGTQGIPLARTVRCNCIHIDDGPVRMRAIGKLEIIPASLSCPRVEIIATMKKNDEQRCLNPESKTIKNLMKAFSQKRSKRAP
hierarchy of activity in ability to kill bacilli and block spore germination [1]: CXCL9>CXCL10>CXCL11 | hierarchy of direct antimicrobial activity [1]: mCXCL9>mCXCL10>mCXCL11
